Series [1] concerns HEK-293, SH-SY5Y, primary human keratinocytes, THP-1 differentiated with PMA. Briefly: Cell viability, CellTiterGlo (ATP content), used to select concentrations. The class given is cell-based. The note with it: 24 hours of exposure; no more than 400 μM anatabine free base. For orientation: ATP-based viability assays read luminescence as a measure of living cells.
A further series has as its system NRF2 reporter cells. Briefly: Cell viability measured with ATP assay alongside NRF2 translocation (FIG. 4 to 7). From the text:
FIGS. 5A to 5C: bar and line graphs showing NRF2 translocation presented as log 2 fold change compared to vehicle control (bars) and cell viability measured with ATP assay and presented as a percentage of the vehicle control (line) for anatabine (FIG. 5A), dimethyl fumarate (AlfaAesar) (FIG. 5B), and nornicotine (FIG. 5C).
FIGS. 6A to 6C: bar graphs showing NRF2 translocation presented as log 2 fold change compared to vehicle control (bars) and cell viability measured with ATP assay and presented as a percentage of the vehicle control (line) for anatabine (FIG. 6A), dimethyl fumarate (Sigma) (FIG. 6B), and sulforaphane (FIG. 6C).
FIGS. 7A and […]: bar graphs showing NRF2 translocation presented as log 2 fold change compared to vehicle control (bars) and cell viability measured with ATP assay and presented as a percentage of the vehicle control (line) for cotinine (FIG. 7A) and nicotine (FIG. 7B).

The subject of another series is NRF2. Nature of the series: NRF2 luciferase assay (NRF2/ARE reporter cell line). In kind it is cell-based, human. From the text:
A HEK-293 NRF2/ARE luciferase reporter cell line was acquired from Signosis (USA). According to Signosis, this NRF2 luciferase reporter stable cell line had been stably transfected with pTA-ARE-luciferase reporter vector, which contains 4 repeats of antioxidant response binding sites, a minimal promoter upstream of the firefly luciferase coding region, along with a hygromycin expression vector. Following selection, the hygromycin resistant clones were subsequently screened for TBHQ-induced luciferase activity. The clone with the highest fold induction was selected and expanded to produce this stable cell line.
4, 8 or 24 hours after stimulation of the NRF2 reporter cells luminescence was measured using a FLUOstar Omega plate reader.

Each structure is given as a SMILES string. Where only a bound is given, the exact number is not on record here.

Data on 1 molecule can be found in patent US20260224547A1, “COMPOSITIONS COMPRISING ANATABINE AND USES THEREOF” (Philip Morris Products S.A., priority 2021, published 2026).

`C1=CCC(c2cccnc2)NC1` (racemic) [anatabine, 1,2,3,6-Tetrahydro-2,3′-bipyridine]: the “cell viability (ATP content vs medium-only control)” value in series [1] is recorded as not below 80%. Besides, the “cell viability, percentage of the vehicle control” value with NRF2 reporter cells (250 μM) and with NRF2 reporter cells (500 μM) was “above 85%” each time. Besides, in the series on NRF2 reporter cells (higher concentrations of the tested range), the “cell viability at higher concentrations” value is given as “high cell viability”. Moreover, the “maximum log 2-fold change of NRF2 activation” value in the series with NRF2 (at 12.5 μM for sulforaphane, 125 μM and 250 μM for DMF, 1000 μM for anatabine) is “over 7”. The “NRF2 luciferase reporter signal” value in the series with NRF2 (concentration series) is listed as “concentration-dependent rise”.
